Laboratory results reported in publication PMC9322451 (Clinical Pharmacology in Drug Development, 2022).

Experiments:
P‐gp = system: P‐gp; set-up: method as in unpublished data; settings: ref unpublished data, read-out: half maximal inhibitory concentration; cited from earlier work
CYP2A6 = system: CYP2A6; set-up: method as in unpublished data; settings: ref unpublished data; cited from earlier work
[1] = set-up: method as in unpublished data; settings: oral or intravenous 14C‐brensocatib, rats; ref unpublished data; cited from earlier work
CYP2C9 = system: CYP2C9; set-up: method as in unpublished data; settings: ref unpublished data; cited from earlier work
CYP2D6 = system: CYP2D6; set-up: method as in unpublished data; settings: ref unpublished data, read-out: half maximal inhibitory concentration; cited from earlier work
CYP2B6 = system: CYP2B6; set-up: method as in unpublished data; settings: ref unpublished data, read-out: half maximal inhibitory concentration; cited from earlier work
Caco‐2 monolayers = system: Caco‐2 monolayers; set-up: method as in unpublished data; settings: ref unpublished data; cited from earlier work
[2] = Phase 1 part A: safety (TEAEs); type: in vivo, human; settings: for Any TEAE / Headache (TEAE) / Nasopharyngitis (TEAE) / SAE / Severe TEAE / Skin exfoliation (TEAE) / TEAE leading to death / TEAE leading to discontinuation: Part A
Experimental: The study was conducted sequentially in 2 parts. […] Eligible participants were admitted to the clinical unit for single‐dose evaluation from days −2 to 2 and from days 29 to 31 for steady‐state PK and safety evaluation. Participants self‐administered daily doses after an overnight fast of at least 10 hours on days 4 to 30, with outpatient visits on days 3, 4, 7, 14, 21, 32, 33, and 61 (Figure S1). […] Dosing of the 40‐mg group commenced when the safety of 25 mg was deemed acceptable by both the investigator and the sponsor's (Insmed Incorporated, Bridgewater, New Jersey) medical monitor.
Safety was assessed from the signing of informed consent until the end of study and included the following variables: treatment‐emergent adverse events (TEAEs), serious adverse events (SAEs), clinical laboratory tests (clinical chemistry, hematology, coagulation [part A only], and urinalysis), vital signs, 12‐lead ECG, primary Holter monitoring, and physical examinations (including evaluation of teeth and gingiva, and evaluation of palms and soles). Because of the mechanism of action of brensocatib, findings of hyperkeratosis, periodontitis/gingivitis, and other infections were reported as adverse events of special interest (AESIs). Renal function (part A only) was monitored by measuring serum creatinine and blood urea nitrogen, performing routine urinalysis, and measuring neutrophil gelatinase–associated lipocalin and cystatin.
Adverse events (AEs) observed before the first dosing were recorded as medical history. All medical history and AEs were coded using the Medical Dictionary for Regulatory Activities (version 21.1 or higher). A TEAE was defined as an AE that began or worsened in severity after at least 1 dose of study drug was administered. All AEs experienced by a participant were monitored until the event had resolved, any abnormal laboratory values returned to baseline or stabilized, a satisfactory explanation for the changes was identified, or the participant was lost to follow‐up.

CYP2E1 = system: CYP2E1; set-up: method as in unpublished data; settings: ref unpublished data; cited from earlier work
CYP2C19 = system: CYP2C19; set-up: method as in unpublished data; settings: ref unpublished data; cited from earlier work
[3] = system: breast cancer resistance protein; set-up: method as in unpublished data; settings: ref unpublished data, read-out: half maximal inhibitory concentration; cited from earlier work
[4] = set-up: method as in unpublished data; settings: healthy adults; ref unpublished data; cited from earlier work
CYP1A2 = system: CYP1A2; set-up: method as in unpublished data; settings: ref unpublished data; cited from earlier work
CYP2C8 = system: CYP2C8; set-up: method as in unpublished data; settings: ref unpublished data; cited from earlier work

## Cn1c(=O)oc2ccc(-c3ccc(C[C@@H](C#N)NC(=O)[C@@H]4CNCCCO4)cc3)cc21 [Brensocatib]
P‐gp
  IC50: > 11 µM
CYP2A6
  CYP inhibition: no effect
[1]
  brensocatib in plasma, share of total radioactivity exposure: > 80%
  most abundant metabolite in plasma, share of total radioactivity exposure: ≈ 3%
CYP2C9
  CYP inhibition: no effect
CYP2D6
  IC50: > 30 µM
CYP2B6
  IC50: > 30 µM
Caco‐2 monolayers
  apparent permeability from apical side to basolateral side: 9.03 × 10^–6 cm/s
[2]; 10 mg, Japanese (n=8)
  Any TEAE: 3 (37.5) n (%)
  Headache (TEAE): 0 n (%)
  Nasopharyngitis (TEAE): 0 n (%)
  SAE: 0 n (%)
  Severe TEAE: 0 n (%)
  Skin exfoliation (TEAE): 1 (12.5) n (%)
  TEAE leading to death: 0 n (%)
  TEAE leading to discontinuation: 0 n (%)
[2]; 10 mg, White (n=8)
  Any TEAE: 6 (75.0) n (%)
  Headache (TEAE): 1 (12.5) n (%)
  Nasopharyngitis (TEAE): 2 (25.0) n (%)
  SAE: 0 n (%)
  Severe TEAE: 0 n (%)
  Skin exfoliation (TEAE): 0 n (%)
  TEAE leading to death: 0 n (%)
  TEAE leading to discontinuation: 0 n (%)
[2]; 25 mg, Japanese (n=9)
  Any TEAE: 5 (55.6) n (%)
  Headache (TEAE): 3 (33.3) n (%)
  Nasopharyngitis (TEAE): 0 n (%)
  SAE: 0 n (%)
  Severe TEAE: 0 n (%)
  Skin exfoliation (TEAE): 2 (22.2) n (%)
  TEAE leading to death: 0 n (%)
  TEAE leading to discontinuation: 0 n (%)
[2]; 25 mg, White (n=8)
  Any TEAE: 5 (62.5) n (%)
  Headache (TEAE): 1 (12.5) n (%)
  Nasopharyngitis (TEAE): 0 n (%)
  SAE: 0 n (%)
  Severe TEAE: 0 n (%)
  Skin exfoliation (TEAE): 1 (12.5) n (%)
  TEAE leading to death: 0 n (%)
  TEAE leading to discontinuation: 0 n (%)
[2]; 40 mg, Japanese (n=8)
  Any TEAE: 3 (37.5) n (%)
  Headache (TEAE): 0 n (%)
  Nasopharyngitis (TEAE): 0 n (%)
  SAE: 0 n (%)
  Severe TEAE: 0 n (%)
  Skin exfoliation (TEAE): 0 n (%)
  TEAE leading to death: 0 n (%)
  TEAE leading to discontinuation: 1 (12.5) n (%)
[2]; 40 mg, White (n=8)
  Any TEAE: 5 (62.5) n (%)
  Headache (TEAE): 2 (25.0) n (%)
  Nasopharyngitis (TEAE): 0 n (%)
  SAE: 0 n (%)
  Severe TEAE: 0 n (%)
  Skin exfoliation (TEAE): 1 (12.5) n (%)
  TEAE leading to death: 0 n (%)
  TEAE leading to discontinuation: 0 n (%)
[2]; pooled brensocatib (N=49)
  Any TEAE: 27 (55.1) n (%)
  Headache (TEAE): 7 (14.3) n (%)
  Nasopharyngitis (TEAE): 2 (4.1) n (%)
  SAE: 0 n (%)
  Severe TEAE: 0 n (%)
  Skin exfoliation (TEAE): 5 (10.2) n (%)
  TEAE leading to death: 0 n (%)
  TEAE leading to discontinuation: 1 (2.0) n (%)
[2]; part A
  Renal toxicity assessments: no signs of acute kidney injury
  participants treated with brensocatib who experienced ≥1 TEAE: 55.1%
[2]; parts A and B
  AESIs (hyperkeratosis, periodontitis/gingivitis, other infections): None of these AESIs were evident
  SAEs, severe TEAEs, deaths during the study: No SAEs, severe TEAEs, or deaths occurred
[2]; single and multiple administration 10, 25, and 40 mg for 28 days, healthy Japanese and White participants
  tolerability: well tolerated
CYP2E1
  CYP inhibition: no effect
CYP2C19
  CYP inhibition: no effect
[3]
  IC50: > 11 µM
[4]
  excreted in urine as unchanged: ≈ 20%
CYP1A2
  CYP inhibition: no effect
CYP2C8
  CYP inhibition: no effect
